Structures can show the parent of a compound that is named as a salt. Square brackets hold non-standard residues; d marks the D form. Peptide text beside a SMILES is read from it. dPhe(F5) = N[C@H](Cc1c(F)c(F)c(F)c(F)c1F)C(=O)O; dBpa = N[C@H](Cc1ccc(C(=O)c2ccccc2)cc1)C(=O)O; dCha = N[C@H](CC1CCCCC1)C(=O)O
Columns and labels:
[1] = tested on: patients with locally advanced or metastatic solid tumors; test: Phase I single agent study of CBP501 (Study A): MTD, DLT, safety, antitumor activity; format: in vivo, human
Excerpt: (§1) PK was examined in cycle (cy) 1. MTD is the level below that where 2 of 3-6 patients (pts) have DLT during cy 1-2.
A minimum of 3 patients were to be enrolled at each dose level, and 6 in the event of DLT.
(1) Neutropenia Gr 4 lasting 7 days (5 days in combination study) or Gr 3-4 neutropenia with fever and/or infection, (2) Thrombocytopenia Gr 4 (or grade 3 with bleeding), (3) Treatment-related non-hematological toxicity Gr 3 or 4 (excluding Gr 3 vomiting or diarrhea with sub-optimal prophylactic and curative treatment), and (4) Dosing delay greater than 2 weeks or treatment discontinuation due to treatment-emergent adverse events or related severe laboratory abnormalities.
The MTD was defined as the dose level below that in which DLT was observed during the first 2 cycles in at least 2 out of the 3-6 patients assessable for determination of MTD. The MTD was to be the RD for future studies. Patients evaluable for MTD were those who completed 2 treatment cycles or experienced DLT during the first 2 cycles.
(1) Echocardiogram or MUGA scan (baseline and every 2 cycles), (2) Cardiac enzymes (CPK-MB, CPK-MM, troponin; baseline and prior to each administration), and (3) ECG (before infusion, end of infusion, and 1 hr after infusion end).
(1) Pathologically-confirmed, locally advanced or metastatic solid tumors, refractory to standard therapy or for which conventional therapy is not reliably effective, (2) Presence of measurable disease according to RECIST criteria was not required, but was recommended in additional patients entered at MTD, (3) Age ≧18 years; Eastern Cooperative Oncology Group (ECOG) PS 0-2; Life expectancy >3 months, (4) Adequate organ function (hematological, hepatic, renal, metabolic), and (5) Signed informed consent

[2] = Pharmacokinetics of CBP501, single agent study; format: in vivo, human; details: for AUC(0-inf) / Cmax / clearance / half-life: human
Excerpt: as §1
In the single agent study, PK was examined in cycle 1. Samples were collected on Days 1 and 15 before the start of the infusion, then at various time points over 24 hr from the start of the infusion, as described below.

[3] = Tissue distribution of 3H-labelled CBP501, NCI-H226 xenograft model; format: in vivo, SCID mice; details: NCI-H226 and MSTO-211H xenograft tumors, Table 15
Procedure: A suspension of NCI-H226 cells was injected subcutaneously into the flanks of six weeks old male severe […] combined immune deficiency (SCID) mice (Charles River Lab., Wilmington, Mass.). The size of tumors was measured three times a week using a caliper. The volumes were calculated using the following formula: volume (cm^3)=[width^2 (mm)×length (mm)]/2000. The relative tumor volume was expressed as the Vt/V0 index, where Vt is the tumor volume on a measured day, and V0 is the volume of the same tumor just before the first treatment. Mean relative tumor sizes with standard error of mean, SEM, were plotted. Body weight was measured three times weekly from the first treatment, and the weight change was expressed as a percentage of the initial weight. Animals were housed in accordance with guidelines from the Association for the Assessment and Accreditation of Laboratory Animal Care International, and the protocols were approved by the institutional animal care committee of CanBas Co., Ltd.
An N-terminal amino acid, p-benzoylphenylalanyl, was ^3H labeled by Daiichi Kagaku Yakuhin Co., Ltd. (Tokyo, Japan).

[4] = cardiac monitoring, both studies
[5] = single agent, 9.5 mg/m^2, 3 pts
[6] = single agent, 16.9 mg/m^2, 3 pts
[7] = single agent, 22.5 mg/m^2, 7 pts
[8] = in vivo, 0.9 mg/m2, single agent, 0.9 mg/m^2, Day 1, mean, N 4
[9] = in vivo, 0.9 mg/m2, single agent, 0.9 mg/m^2, Day 15, mean, N 3
[10] = in vivo, 7.2 mg/m2, single agent, 7.2 mg/m^2, Day 1, mean, N 3
[11] = in vivo, 7.2 mg/m2, single agent, 7.2 mg/m^2, Day 15, mean, N 3
[12] = in vivo, 9.57 mg/m2, single agent, 9.57 mg/m^2, Day 1, mean, N 3
[13] = in vivo, 9.57 mg/m2, single agent, 9.57 mg/m^2, Day 15, mean, N 2
[14] = in vivo, 12.73 mg/m2, single agent, 12.73 mg/m^2, Day 1, mean, N 3
[15] = in vivo, 12.73 mg/m2, single agent, 12.73 mg/m^2, Day 15, mean, N 3
[16] = in vivo, 16.93 mg/m2, single agent, 16.93 mg/m^2, Day 1, mean, N 2
[17] = in vivo, 16.93 mg/m2, single agent, 16.93 mg/m^2, Day 15, mean, N 3
[18] = in vivo, 22.5 mg/m2, single agent, 22.5 mg/m^2, Day 1, mean, N 7
[19] = in vivo, 22.5 mg/m2, single agent, 22.5 mg/m^2, Day 15, mean, N 5
[20] = in vivo, […]2, single agent, […]^2, Day 1, mean, N 3
[21] = in vivo, […]2, single agent, […]^2, Day 1, mean, N 4

N=C(N)NCCC[C@@H](NC(=O)[C@@H](CCCNC(=N)N)NC(=O)[C@@H](CCC(N)=O)NC(=O)[C@@H](CCCNC(=N)N)NC(=O)[C@@H](CCCNC(=N)N)NC(=O)[C@@H](CCCNC(=N)N)NC(=O)[C@@H](CC1CCCCC1)NC(=O)[C@@H](Cc1c(F)c(F)c(F)c(F)c1F)NC(=O)[C@@H](CO)NC(=O)[C@@H](Cc1c[nH]c2ccccc12)NC(=O)[C@@H](CO)NC(=O)[C@H](N)Cc1ccc(C(=O)c2ccccc2)cc1)C(=O)O [CBP501, H-(D)p-Benzoylphenylalanyl-(D)seryl-(D)tryptophyl-(D)seryl-(D)pentafluorophenylalanyl-(D)cyclohexylalanyl-(D)arginyl-(D)arginyl-(D)arginyl-(D)glutaminyl-(D)arginyl-(D)arginine acetate salt] (H-[dBpa][dS][dW][dS][dPhe(F5)][dCha][dR][dR][dR][dQ][dR][dR]-OH)
QTc > 500 ms (patients) ([1]; Single agent (16 pts), centralized ECG review): 0
Abdominal pain Gr 1-2 ([1]; Single-agent (n = 30)): 7
Abdominal pain Gr 3 ([1]; Single-agent (n = 30)): 2
Allergy (includes infusion reaction, flushing, rash, etc.) Gr 1-2 ([1]; Single-agent (n = 30)): 18
Diarrhea Gr 1-2 ([1]; Single-agent (n = 30)): 5
Diarrhea Gr 3 ([1]; Single-agent (n = 30)): 1
Fatigue Gr 1-2 ([1]; Single-agent (n = 30)): 14
Fatigue Gr 3 ([1]; Single-agent (n = 30)): 1
Headache Gr 1-2 ([1]; Single-agent (n = 30)): 3
Increased troponin Gr 3 ([1]; Single-agent (n = 30)): 1
Nausea/Vomiting Gr 1-2 ([1]; Single-agent (n = 30)): 5
Neutropenia Gr 1-2 ([1]; Single-agent (n = 30)): 3
QTc prolongation Gr 1-2 ([1]; Single-agent (n = 30)): 10
Thrombocytopenia Gr 1-2 ([1]; Single-agent (n = 30)): 4
Anemia Gr 1-2 ([1]; Single-agent (n = 30), 16 with baseline anemia): 22 (16*)
patients with QTc prolongation by >60 msec ([1]; both studies, centralized ECG review (16 + 24 patients)): 4
start of allergic reaction into the infusion ([1]; both studies, rash, hot flushes, urticaria): 10 to 60 min
pts with QTcB >500 msec [1, 4]: 1
pts with QTcB prolongation >60 msec [1, 4]: 2
time for troponin to return to normal levels ([1]; patient at DL 8, single-agent, Gr 3 troponin elevation): within one week
tolerability ([1]; single agent): well tolerated
Patients with allergic reaction Gr1 ([1]; single agent, 0.9 mg/m^2, 4 pts): 1
Patients with allergic reaction Gr2 ([1]; single agent, 7.2 mg/m^2, 3 pts): 3
Patients with allergic reaction Gr1 [1, 5]: 1
Patients with allergic reaction Gr2 [1, 5]: 2
Patients with allergic reaction Gr1 [1, 6]: 1
Patients with allergic reaction Gr2 [1, 6]: 1
Patients with allergic reaction Gr1 [1, 7]: 3
Patients with allergic reaction Gr2 [1, 7]: 4
pts with Gr 1-2 allergy ([1]; single agent, 30 pts treated (43%), interim summary): 13
Patients with allergic reaction Gr1 ([1]; single agent, TOTAL, 30 pts): 7
Patients with allergic reaction Gr2 ([1]; single agent, TOTAL, 30 pts): 11
MTD ([1]; single agent, doses up to 22.5 mg/m^2): not reached
DLT ([1]; single-agent, dose 22.5 mg/m^2, 7 pts, 11 cycles): 1
inter-patient variability within dose levels, coefficient of variation ([2]; both studies, generally in the range): 20%-40%
AUC(0-inf) [2, 8]: 178 ng·h/mL
Cmax [2, 8]: 121 ng/mL
clearance [2, 8]: 2.05 mL/min/kg
half-life [2, 8]: 0.7 h
AUC(0-inf) [2, 9]: 188 ng·h/mL
Cmax [2, 9]: 138 ng/mL
clearance [2, 9]: 1.8 mL/min/kg
half-life [2, 9]: 0.6 h
AUC(0-inf) [2, 10]: 4390 ng·h/mL
Cmax [2, 10]: 1920 ng/mL
clearance [2, 10]: 0.817 mL/min/kg
half-life [2, 10]: 1.3 h
AUC(0-inf) [2, 11]: 3660 ng·h/mL
Cmax [2, 11]: 2010 ng/mL
clearance [2, 11]: 0.933 mL/min/kg
half-life [2, 11]: 1.1 h
AUC(0-inf) [2, 12]: 6480 ng·h/mL
Cmax [2, 12]: 2890 ng/mL
clearance [2, 12]: 0.633 mL/min/kg
half-life [2, 12]: 2.5 h
AUC(0-inf) [2, 13]: 5140 ng·h/mL
Cmax [2, 13]: 2410 ng/mL
clearance [2, 13]: 0.783 mL/min/kg
half-life [2, 13]: 1.2 h
AUC(0-inf) [2, 14]: 6340 ng·h/mL
Cmax [2, 14]: 2730 ng/mL
clearance [2, 14]: 0.983 mL/min/kg
half-life [2, 14]: 1.4 h
AUC(0-inf) [2, 15]: 7660 ng·h/mL
Cmax [2, 15]: 3080 ng/mL
clearance [2, 15]: 0.8 mL/min/kg
half-life [2, 15]: 2.4 h
AUC(0-inf) [2, 16]: 14300 ng·h/mL
Cmax [2, 16]: 4920 ng/mL
clearance [2, 16]: 0.617 mL/min/kg
half-life [2, 16]: 2 h
AUC(0-inf) [2, 17]: 12600 ng·h/mL
Cmax [2, 17]: 4640 ng/mL
clearance [2, 17]: 0.6 mL/min/kg
half-life [2, 17]: 2.9 h
AUC(0-inf) [2, 18]: 16500 ng·h/mL
Cmax [2, 18]: 6080 ng/mL
clearance [2, 18]: 0.667 mL/min/kg
half-life [2, 18]: 3.2 h
AUC(0-inf) [2, 19]: 20200 ng·h/mL
Cmax [2, 19]: 7490 ng/mL
clearance [2, 19]: 0.583 mL/min/kg
half-life [2, 19]: 4 h
clearance [2, 20]: 0.917 mL/min/kg
half-life [2, 20]: 1.2 h
clearance [2, 21]: 0.867 mL/min/kg
half-life [2, 21]: 1.7 h
half-life ([2]; in vivo, […]2, single agent, […]^2, Day 15, mean, N 3): 1.6 h
differences in PK between day 1 and day 15 or between single-agent and combination administration ([2]; in vivo): No consistent differences
dose range over which dose-proportionality of Cmax and AUC0-inf was observed ([2]; in vivo): 40 fold
Cl ([2]; single agent, 0.9 mg/m^2, Day 1, mean, N 4): 5240 mL/h/m^2
Cl ([2]; single agent, 0.9 mg/m^2, Day 15, mean, N 3): 4908 mL/h/m^2
Cl ([2]; single agent, 7.2 mg/m^2, Day 1, mean, N 3): 1802 mL/h/m^2
Cl ([2]; single agent, 7.2 mg/m^2, Day 15, mean, N 3): 2041 mL/h/m^2
Cl ([2]; single agent, 9.57 mg/m^2, Day 1, mean, N 3): 1599 mL/h/m^2
Cl ([2]; single agent, 9.57 mg/m^2, Day 15, mean, N 2): 1954 mL/h/m^2
Cl ([2]; single agent, 12.73 mg/m^2, Day 1, mean, N 3): 2081 mL/h/m^2
Cl ([2]; single agent, 12.73 mg/m^2, Day 15, mean, N 3): 1677 mL/h/m^2
Cl ([2]; single agent, 16.93 mg/m^2, Day 1, mean, N 2): 1395 mL/h/m^2
Cl ([2]; single agent, 16.93 mg/m^2, Day 15, mean, N 3): 1372 mL/h/m^2
Cl ([2]; single agent, 22.5 mg/m^2, Day 1, mean, N 7): 1458 mL/h/m^2
Cl ([2]; single agent, 22.5 mg/m^2, Day 15, mean, N 5): 1206 mL/h/m^2
Cl ([2]; single agent, […]^2, Day 1, mean, N 3): 2197 mL/h/m^2
Cl ([2]; single agent, […]^2, Day 1, mean, N 4): 2908 mL/h/m^2
dose-proportionality of Cmax and AUC ([2]; single agent, days 1 and 15, over the dose range evaluated, acetate salt): showed dose-proportionality
concentration of CBP501 in the subcutaneous tumor xenograft [3]: 1000 to 2000 nM
